Laboratory results published in article PMC9782626, “Copper(II) Complexes of 5–Fluoro–Salicylaldehyde: Synthesis, Characterization, Antioxidant Properties, Interaction with DNA and Serum Albumins” (Molecules, 2022).

Test: Reduction of hydrogen peroxide
Format: biochemical
Settings: compound 0.1 mM, 10 min, pH 7.4
Description: For the above reasons, the antioxidant ability of 5–F–saloH and Cu(II) complexes 1–5 has been evaluated via their scavenging activity towards DPPH and ABTS radicals, as well as the ability to reduce H2O2, and in comparison with that of well-known antioxidant agents such as nordihydroguaiaretic acid (NDGA), butylated hydroxytoluene (ΒHΤ), 6–hydroxy–2,5,7,8–tetramethylchromane–2–carboxylic acid (trolox) and L–ascorbic acid (these are the most commonly used standard reference antioxidant agents). The DPPH-radical assay was developed in the 1950s and this method has been used to assess the antioxidant capacity of several metal complexes. The DPPH–scavenging ability of compounds has often been related to their ability to prevent ageing, cancer and inflammation. The ability of a compound to scavenge the cationic ABTS radicals (ABTS^+●) has been considered a measure of its total antioxidant activity. Further, hydrogen peroxide has the ability to penetrate biological membranes and, although it is not very reactive itself, it can sometimes be toxic since it may give rise to hydroxyl radicals in cells. For this reason, the removal of H2O2 is very important for the protection of living systems. When a compound is incubated with H2O2 using a peroxidase assay system, the loss of H2O2 can be measured.
S1 Antioxidant activity assay
The antioxidant activity of the compounds was evaluated via their ability to scavenge in vitro free radicals such as DPPH and ABTS and to reduce H 2O2. All the experiments were carried out at least in triplicate and the standard deviation of absorbance was less than 10% of the mean.
S1.1 Determination of the reducing activity of the radical DPPH […]
S1.3 Reduction of hydrogen peroxide
The ability of the com pounds to reduce hydrogen peroxide (H2O2) was est imated according to the method descr ibed in the literature [S2]. The reaction mixture contained 20 μL of each of the tested compounds (0.1 mM) and 5 μL H2O 2 solution (40 mM) in phosphate buffer (50 mM, pH = 7.4). The absorbance was measure d at 230 nm after 10 min.
The antioxidant activity (reduction of hydrogen peroxide) of the compounds wa s […]
expressed as the percentage decrease of t he init ial H 2O2 solution (H 2O2%). L-ascor b ic ac id (or vitamin C) was use d as a standard. […]
[DNA] = [DNA] + 1 (eq. S1) […]
where [DNA] is the concentration of DNA in base pa irs, εA = Aobsd/[compound ], εf = the extinction coefficient for the free compound and ε b = the extinction coefficient for the compound in the fully bound form. Kb is given by the ratio of slope to the y intercept in plots [DNA]/(εA-εf) versus[DNA].
S2.2CT DNA -binding studie s by viscosity measurements
The interaction of compounds with DNA has been evaluated via the study of the CT DNA viscosity ([DNA] = 0.1 mΜ) in a buffer solution (150 mM NaCl and 15 mM trisodium citrate at pH 7.0) in the presence of increasing amount of complexes (up to the value of r = 0.36). The obtained data are presented as (η/η 0)1/3 versus r, where η is the viscosity of DNA in the presence of the compound, and η0 is the viscosity of DNA alone in buffer solution.
S2.3 EB -displa cement studie s
The competition of the complexes with EB was investigated by fluorescence emission spectroscopy in order to examine whether the compounds can displace EB from its DNA-EB conjugate. The CT DNA-EB complex was formed by pre-treating 20 μM EB and 26 μM CT DNA in buffer (150 mM NaCl and 15 mM trisodium citrate at pH = 7.0).
The possible displacement of EB by the compounds and su bseq uently t he ir intercalating effect was studied by the stepwise addition of a certain amount of the solution of each

SMILES	H2O2%, H2O2–reducing activity [%]
O=Cc1cc(F)ccc1[O-].[Cl-].[Cu+2].c1ccc(Nc2ccccn2)nc1 [Complex 2, [Cu(5–F–salo)(bipyam)Cl]]	99.69 ± 0.29
CO.Cc1ccc2ccc3ccc(C)nc3c2n1.O=Cc1cc(F)ccc1[O-].[Cl-].[Cu+2] [Complex 3, [Cu(5–F–salo)(neoc)Cl].CH3OH]	26.10 ± 0.66
O=Cc1cc(F)ccc1[O-].O=[N+]([O-])[O-].[Cu+2].c1ccc(-c2ccccn2)nc1 [Complex 5, [Cu(5–F–salo)(bipy)(NO3)]]	69.21 ± 1.10
O=Cc1cc(F)ccc1[O-].O=Cc1cc(F)ccc1[O-].[Cu+2] [Complex 1, [Cu(5–F–salo)2]]	71.61 ± 0.35
O=Cc1cc(F)ccc1[O-].O=[N+]([O-])[O-].[Cu+2].c1cnc2c(c1)ccc1cccnc12 [Complex 4, [Cu(5–F–salo)(phen)(NO3)]]	25.90 ± 0.76
